Assay [1] relates to diet-induced hypercholesterolemic Sprague Dawley rats. Kind of assay: Diet-induced hypercholesterolemia in wild type Sprague Dawley rats (total, HDL, LDL cholesterol). It is filed as in vivo, rat. The settings on record: Sprague Dawley rats on atherogenic diet, oral once daily, day 5, FIGS. 5a–c. The text has this:
Experimental Procedure: Six week-old male Sprague Dawley rats (obtained from Harlan of San Diego, Calif.) were housed in a fixed 12—12-hr artificial light-dark cycle, and maintained on a high cholesterol atherogenic diet (Paigen's Diet, obtained from Research Diet Inc. of New Brounswick, N.J.) was provided ad libitum. Animals were allowed six days to acclimate in this experimental environment prior to the initiation of the study.
Prior to initiation of treatment, the animals were bled from the tail vein (100–200 μL of whole blood) and serum levels of cholesterol were measured in duplicate (Cholesterol Infinity kits; Sigma, St. Louis, Mo.). Based on these initial measures, animals were sorted into groups with approximately the same average total cholesterol levels. Once sorted, the animals were housed three per cage and maintained on Paigen's diet ad libitum. All compounds to be tested were suspended in sesame oil and administered in a final volume of 3 ml/kg. Drug is administered by oral gavage once daily at the beginning of the artificial light cycle. To obtain a base line for lipid measurement, a control group maintained on standart rodent diet is included (lean control).
Treatment Group A (n=6/group): (See Results in FIG. 5a) • 1) Lean control (Sesame Oil) • 2) Control • 3) Compound 2 (0.3 mg/kg) • 4) Compound 2 (1 mg/kg) • 5) Compound 2 (3 mg/kg)
Treatment Group B (n=6/group): (See Results in FIG. 5b) • 1) Lean control (Sesame Oil) • 2) Control • 3) Compound 6 (3 mg/kg)
Treatment Group C (n=6/group): (See Results in FIG. 5c) • 1) Lean control (10% HPβCD) • 2) Control • 3) Compound 25 (1 mg/kg) • 4) Compound 25 (3 mg/kg) • 5) Compound 25 (10 mg/kg) • 6) Compound 25 (15 mg/kg) • The compounds were dissolved in a 10% hydroxy propyl beta cyclodextrin solution, and administered to animals in a volume of 10 ml/kg/dose.
To monitor the effect of the tested compounds, animals were bled from the tail vein at the end of the dark cycle on days 0 (for sorting) and day 5 of the treatment period. Fed serum cholesterol levels were measured in duplicate. The blood is kept at room temperature to allow coagulation, after which the serum is separated and assayed for total cholesterol (Infinity reagent, Sigma), HDL cholesterol (using HDL precipitating reagent and infinity reagent, Sigma) and LDL cholesterol (EZLDL kit, Sigma). As shown in FIGS. 5a–c, all compounds tested show significant reduction in total and LDL cholesterol levels and a significant increase in HDL cholesterol levels compared to high fat fed control animals.

For another assay, the system named is KKA^y mice. Put plainly: Oral treatment of type 2 diabetes in KKA^y mice (serum glucose, triglyceride, cholesterol). Type of assay: in vivo, mouse. The settings on record: KKA^y mice, oral once daily, vs control mice, FIGS. 2a–d. The text has this: The procedure for this in-vivo assay for anti-diabetes activity was described in detail by Iwatsuka, et al. (1970 General Survey of Diabetic Features of Yellow KK Mice. Endocrinol. Japon. 17: 23–35, incorporated herein in its entirety by reference).
Experimental Procedures: Six to eight week-old male KKA^y mice (obtained from Jackson Labs of Bar Harbord, Me.) were housed in a fixed 12–12-hr artificial light-dark cycle, and maintained on a standard rodent diet provided ad libitum. Animals were allowed two days to acclimate in this experimental environment prior to the initiation of the study.
Prior to initiation of treatment with the compounds of the invention, the animals were bled from the tail vein (100–200 μL of whole blood) and serum levels of glucose and triglycerides were measured in duplicate (Trinder kits; Sigma, St. Louis, Mo.). Based on these initial measures, animals were sorted into groups with approximately the same average serum glucose levels. Once sorted, the animals were housed one per cage and provided rodent diet ad libitum. Unless otherwise indicated, compounds were suspended in sesame oil, and administered by oral gavage once daily to animals in a volume of 3 ml/kg/dose.
Treatment Group A (n=5/group): (See Results in FIG. 2a) • 1) KKA^y vehicle control (sesame oil) • 2) Compound 1 (3 mg/kg) • 3) Compound 1 (10 mg/kg) • 4) Compound 2 (3 mg/kg) • 5) Compound 2 (10 mg/kg)
Treatment Group B (n=6/group): (See Results in FIG. 2b) • 1) KKA^y vehicle control (sesame oil) • 2) Compound 11 (15 mg/kg)
Treatment Group C (n=6/group): (See Results in FIG. 2c) • 1) KKA^y vehicle control (sesame oil) • 2) Compound 13 (15 mg/kg)
Treatment Group D (n=6/group): (See Results in FIG. 2d) • 1) KKA^y vehicle control (CMC) • 2) Compound 25 (3 mg/kg, CMC) Compound 25 was suspended in a solution of carboxymethyl cellulose (CMC; 1% carboxy methyl cellulose in H2O, with 10% polyethelene glycol 400), and administered to animals in a volume of 5 ml/kg/dose.
Treatment Group E (n=5/group): (See Results in FIG. 2e) • 1) KKA^y vehicle control (10% HPβCD) • 2) Compound 25 (1 mg/kg) • 3) Compound 25 (3 mg/kg) • 4) Compound 25 (10 mg/kg) Compound 25 was dissolved in a 10% hydroxy propyl beta cyclodextrin solution, and administered to animals in a volume of 10 ml/kg/dose.
Serum glucose, triglyceride and/or cholesterol levels were measured in duplicate. The blood is kept at room temperature to allow coagulation, after which the serum is separated and assayed for glucose, triglyceride and/or cholesterol levels. As shown in FIGS. 2a–2d all of the compounds tested reduced serum glucose and triglyceride levels, some with doses as low as 3 mg/kg when administered once a day.

Assay [2] has as its system THP-1 cells differentiated into macrophages. Put plainly: Cholesterol efflux assay from macrophage foam cells. It is filed as cell-based. The settings on record: 1 μM, 24 hr, with 10 μg/ml ApoA-I, compared to non treated cells, FIG. 4. The protocol: Cholesterol efflux from macrophage foam cells was assayed as described by Sparrow. et al, J. Biol. Chem.,2002, 277, 10021–10027, which is encorporated herein in its entirety by this reference. THP-1 cells obtained from ATCC (Manassas, VI), were cultured in RPMI medium (Sigma, St-Louis, Mo.), containing 10% fetal calf serum (Sigma, St-Louis, Mo.), 0.05 μM 2-mercaptoethanol, 1 mM sodium pyruvate, 2 mM L-glutamine, 100 units/ml penicillin, […] streptomycin and 0.25 μg/ml amphotericin B obtained from Sigma (St-Louis, Mo.). The THP-1 cells were differentiated into macrophages in 24 well tissue culture dishes at a density of 0.5 million cells/well by incubation in the same medium plus 100 nM tetradecanoyl phorbol acetate (Sigma, St-Louis, Mo.), for 3 days.
After differentiation into macrophages, the cells were tested for cholesterol efflux as induced by compound 2 of the invention. Cells were labeled by incubation for 24 hr in fresh growth medium containing [3 H]-cholesterol (10 μCi/ml) (PerkinElmer, Boston, Mass.), and 50 μg/ml acetylated-LDL (Frederick, Md.) and 1% Fetal bovine serum (Sigma, St-Louis, Mo.). […] Media were briefly centrifuged to remove non-adherent cells, and then aliquots of both the supernatant and the dissolved cells were counted by liquid scintillation spectrometry to determine radioactivity.
Cholesterol efflux is expressed as a percentage, calculated as […]

With `CCN1C(=O)CC(C)(C)c2cc(C)c(-c3cc(/C=C4\SC(=O)NC4=O)ccc3OC(F)(F)F)cc21` [Compound 2, 5-[3-(1-Ethyl-4,4,6-trimethyl-2-oxo-1,2,3,4-tetrahydro-quinolin-7-yl)-4-trifluoromethoxy-benzylidene]-thiazolidine-2,4-dione], in assay [1], the HDL cholesterol entry was “increasing”, the LDL cholesterol result is “decrease” and the total cholesterol entry is on record as “decrease”. Also, in the assay with KKA^y mice, the serum glucose level result is on record as “decrease” and the serum triglyceride level entry is given as “decrease”. For the same compound, in assay [2], the cholesterol efflux entry is “increases”.

For the origin of these results see patent US7102000B2, “Heterocyclic amide derivatives for the treatment of diabetes and other diseases” (Incyte San Diego Inc., priority 2002, dated 2006).
